Like-named read-outs stand apart in the source and are kept apart here.
How the values were obtained:
Assay in all cases: KINOMEscan assay (Eurofins DiscoverX)
Assay type in all cases: binding
kinome (kinase panel) [1] = target: T1, kinome (kinase panel) (Homo sapiens, UniProt O14965); settings: AURKA; 1000 nM; read-out: Percent Control
T1 construct: purchased Eurofins DiscoverX

kinome (kinase panel) [2] = target: T2, kinome (kinase panel) (Homo sapiens, UniProt O43293); settings: DAPK3; 1000 nM; read-out: Percent Control
T2 construct: purchased Eurofins DiscoverX

kinome (kinase panel) [3] = target: T3, kinome (kinase panel) (Homo sapiens, UniProt O94768); settings: DRAK2 (Entrez STK17B); 1000 nM; read-out: Percent Control
T3 construct: purchased Eurofins DiscoverX

kinome (kinase panel) [4] = target: T4, kinome (kinase panel) (Homo sapiens, UniProt O96017); settings: CHEK2; 1000 nM; read-out: Percent Control
T4 construct: purchased Eurofins DiscoverX

kinome (kinase panel) [5] = target: T5, kinome (kinase panel) (Homo sapiens, UniProt P00519, H396P)
T5 construct: purchased Eurofins DiscoverX

kinome (kinase panel) [6] = target: T6, kinome (kinase panel) (Homo sapiens, UniProt P07332); settings: FES; 1000 nM; read-out: Percent Control
T6 construct: purchased Eurofins DiscoverX

kinome (kinase panel) [7] = target: T7, kinome (kinase panel) (Homo sapiens, UniProt P0C1S8); settings: WEE2; 1000 nM; read-out: Percent Control
T7 construct: purchased Eurofins DiscoverX

kinome (kinase panel) [8] = target: T8, kinome (kinase panel) (Homo sapiens, UniProt P10721, D816H); settings: […]; 1000 nM; read-out: Percent Control
T8 construct: purchased Eurofins DiscoverX

kinome (kinase panel) [9] = target: T9, kinome (kinase panel) (Homo sapiens, UniProt P10721, T670I/V559D); settings: read-out: Percent Control
T9 construct: purchased Eurofins DiscoverX

kinome (kinase panel) [10] = target: T10, kinome (kinase panel) (Homo sapiens, UniProt P10721, V559D/V654A); settings: read-out: Percent Control
T10 construct: purchased Eurofins DiscoverX

kinome (kinase panel) [11] = target: T11, kinome (kinase panel) (Homo sapiens, UniProt P19784); settings: CSNK2A2; 1000 nM; read-out: Percent Control
T11 construct: purchased Eurofins DiscoverX

kinome (kinase panel) [12] = target: T12, kinome (kinase panel) (Homo sapiens, UniProt P20794); settings: MAK; 1000 nM; read-out: Percent Control
T12 construct: purchased Eurofins DiscoverX

kinome (kinase panel) [13] = target: T13, kinome (kinase panel) (Homo sapiens, UniProt P21860); settings: ERBB3; 1000 nM; read-out: Percent Control
T13 construct: purchased Eurofins DiscoverX

kinome (kinase panel) [14] = target: T14, kinome (kinase panel) (Homo sapiens, UniProt P27037); settings: ACVR2A; 1000 nM; read-out: Percent Control
T14 construct: purchased Eurofins DiscoverX

kinome (kinase panel) [15] = target: T15, kinome (kinase panel) (Homo sapiens, UniProt P29597); settings: 1000 nM, read-out: Percent Control
T15 construct: purchased Eurofins DiscoverX

kinome (kinase panel) [16] = target: T16, kinome (kinase panel) (Homo sapiens, UniProt P42336, E545A); settings: read-out: Percent Control
T16 construct: purchased Eurofins DiscoverX

kinome (kinase panel) [17] = target: T17, kinome (kinase panel) (Homo sapiens, UniProt P42336, I800L); settings: read-out: Percent Control
T17 construct: purchased Eurofins DiscoverX

kinome (kinase panel) [18] = target: T18, kinome (kinase panel) (Homo sapiens, UniProt P42679); settings: CTK (Entrez MATK); 1000 nM; read-out: Percent Control
T18 construct: purchased Eurofins DiscoverX

kinome (kinase panel) [19] = target: T19, kinome (kinase panel) (Homo sapiens, UniProt P45984); settings: JNK2 (Entrez MAPK9); 1000 nM; read-out: Percent Control
T19 construct: purchased Eurofins DiscoverX

kinome (kinase panel) [20] = target: T20, kinome (kinase panel) (Homo sapiens, UniProt P49840); settings: GSK3A; 1000 nM; read-out: Percent Control
T20 construct: purchased Eurofins DiscoverX

kinome (kinase panel) [21] = target: T21, kinome (kinase panel) (Homo sapiens, UniProt Q00535); settings: CDK5; 1000 nM; read-out: Percent Control
T21 construct: purchased Eurofins DiscoverX

kinome (kinase panel) [22] = target: T22, kinome (kinase panel) (Homo sapiens, UniProt Q13163); settings: MEK5 (Entrez MAP2K5); 1000 nM; read-out: Percent Control
T22 construct: purchased Eurofins DiscoverX

kinome (kinase panel) [23] = target: T23, kinome (kinase panel) (Homo sapiens, UniProt Q16513); settings: PKN2; 1000 nM; read-out: Percent Control
T23 construct: purchased Eurofins DiscoverX

kinome (kinase panel) [24] = target: T24, kinome (kinase panel) (Homo sapiens, UniProt Q6P3R8); settings: NEK5; 1000 nM; read-out: Percent Control
T24 construct: purchased Eurofins DiscoverX

kinome (kinase panel) [25] = target: T25, kinome (kinase panel) (Homo sapiens, UniProt Q6ZWH5); settings: NEK10; 1000 nM; read-out: Percent Control
T25 construct: purchased Eurofins DiscoverX

kinome (kinase panel) [26] = target: T26, kinome (kinase panel) (Homo sapiens, UniProt Q8IW41); settings: MAPKAPK5; 1000 nM; read-out: Percent Control
T26 construct: purchased Eurofins DiscoverX

kinome (kinase panel) [27] = target: T27, kinome (kinase panel) (Homo sapiens, UniProt Q8N568); settings: DCAMKL2 (Entrez DCLK2); 1000 nM; read-out: Percent Control
T27 construct: purchased Eurofins DiscoverX

kinome (kinase panel) [28] = target: T28, kinome (kinase panel) (Homo sapiens, UniProt Q8TD19); settings: NEK9; 1000 nM; read-out: Percent Control
T28 construct: purchased Eurofins DiscoverX

kinome (kinase panel) [29] = target: T29, kinome (kinase panel) (Homo sapiens, UniProt Q8TDC3); settings: BRSK1; 1000 nM; read-out: Percent Control
T29 construct: purchased Eurofins DiscoverX

kinome (kinase panel) [30] = target: T30, kinome (kinase panel) (Homo sapiens, UniProt Q96BR1); settings: SGK3; 1000 nM; read-out: Percent Control
T30 construct: purchased Eurofins DiscoverX

kinome (kinase panel) [31] = target: T31, kinome (kinase panel) (Homo sapiens, UniProt Q9H2K8); settings: TAOK3; 1000 nM; read-out: Percent Control
T31 construct: purchased Eurofins DiscoverX

kinome (kinase panel) [32] = target: T32, kinome (kinase panel) (Homo sapiens, UniProt Q9NQU5); settings: PAK6; 1000 nM; read-out: Percent Control
T32 construct: purchased Eurofins DiscoverX

kinome (kinase panel) [33] = target: T33, kinome (kinase panel) (Homo sapiens, UniProt Q9UL54); settings: TAOK2; 1000 nM; read-out: Percent Control
T33 construct: purchased Eurofins DiscoverX

T15 sequence (P29597 whole entry): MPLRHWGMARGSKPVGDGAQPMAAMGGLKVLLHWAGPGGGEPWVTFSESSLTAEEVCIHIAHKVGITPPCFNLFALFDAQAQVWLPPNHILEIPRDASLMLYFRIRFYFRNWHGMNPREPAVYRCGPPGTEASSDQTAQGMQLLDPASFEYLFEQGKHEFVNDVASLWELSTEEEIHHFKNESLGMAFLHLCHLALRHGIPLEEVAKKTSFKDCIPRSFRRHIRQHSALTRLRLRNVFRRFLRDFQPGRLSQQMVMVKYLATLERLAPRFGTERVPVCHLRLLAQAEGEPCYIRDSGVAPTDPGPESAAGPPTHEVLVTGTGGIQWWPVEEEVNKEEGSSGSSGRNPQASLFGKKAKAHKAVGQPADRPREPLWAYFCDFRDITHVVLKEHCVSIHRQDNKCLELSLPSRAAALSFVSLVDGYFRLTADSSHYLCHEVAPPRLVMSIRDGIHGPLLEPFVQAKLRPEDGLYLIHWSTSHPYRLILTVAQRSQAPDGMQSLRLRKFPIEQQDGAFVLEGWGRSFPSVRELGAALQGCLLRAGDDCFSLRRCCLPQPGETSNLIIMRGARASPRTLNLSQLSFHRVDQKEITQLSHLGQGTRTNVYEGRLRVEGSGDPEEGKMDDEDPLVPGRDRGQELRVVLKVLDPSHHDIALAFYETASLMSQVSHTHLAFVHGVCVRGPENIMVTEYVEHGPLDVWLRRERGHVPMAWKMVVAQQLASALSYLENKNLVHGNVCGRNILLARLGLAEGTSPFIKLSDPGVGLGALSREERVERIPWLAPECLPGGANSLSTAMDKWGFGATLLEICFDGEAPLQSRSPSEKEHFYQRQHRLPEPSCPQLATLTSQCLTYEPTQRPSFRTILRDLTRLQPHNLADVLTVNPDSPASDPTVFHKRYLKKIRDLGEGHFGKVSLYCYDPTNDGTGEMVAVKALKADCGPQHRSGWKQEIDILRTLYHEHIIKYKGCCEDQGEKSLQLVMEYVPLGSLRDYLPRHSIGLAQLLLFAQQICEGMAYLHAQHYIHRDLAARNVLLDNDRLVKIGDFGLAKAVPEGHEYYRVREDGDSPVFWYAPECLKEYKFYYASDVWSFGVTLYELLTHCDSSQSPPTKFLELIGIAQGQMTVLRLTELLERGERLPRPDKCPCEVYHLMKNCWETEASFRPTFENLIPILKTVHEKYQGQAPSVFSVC
T7 sequence (P0C1S8 whole entry): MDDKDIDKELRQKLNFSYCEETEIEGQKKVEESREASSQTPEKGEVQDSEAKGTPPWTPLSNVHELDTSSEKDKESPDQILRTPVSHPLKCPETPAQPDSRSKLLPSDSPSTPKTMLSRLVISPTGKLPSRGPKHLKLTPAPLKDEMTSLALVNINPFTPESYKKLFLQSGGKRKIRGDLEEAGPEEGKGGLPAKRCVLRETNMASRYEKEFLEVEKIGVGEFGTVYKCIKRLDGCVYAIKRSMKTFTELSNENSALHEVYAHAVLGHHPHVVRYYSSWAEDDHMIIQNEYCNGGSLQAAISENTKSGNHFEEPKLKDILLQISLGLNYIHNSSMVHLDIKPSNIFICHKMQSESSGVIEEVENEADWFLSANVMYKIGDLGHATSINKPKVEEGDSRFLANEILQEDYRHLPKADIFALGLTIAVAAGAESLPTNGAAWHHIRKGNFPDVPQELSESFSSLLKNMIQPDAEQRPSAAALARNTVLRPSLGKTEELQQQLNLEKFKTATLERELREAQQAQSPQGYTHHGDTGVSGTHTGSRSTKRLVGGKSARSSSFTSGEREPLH
T11 sequence (P19784 whole entry): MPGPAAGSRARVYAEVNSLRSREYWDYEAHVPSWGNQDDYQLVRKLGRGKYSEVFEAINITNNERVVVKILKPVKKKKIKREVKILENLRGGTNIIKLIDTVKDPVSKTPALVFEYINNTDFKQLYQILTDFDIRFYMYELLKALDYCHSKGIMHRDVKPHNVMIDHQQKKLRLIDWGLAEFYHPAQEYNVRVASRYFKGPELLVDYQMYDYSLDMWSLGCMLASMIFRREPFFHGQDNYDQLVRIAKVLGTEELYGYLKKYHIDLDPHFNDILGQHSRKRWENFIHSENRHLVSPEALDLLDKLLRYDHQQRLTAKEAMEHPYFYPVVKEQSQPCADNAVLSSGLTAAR
T13 sequence (P21860 20-1342): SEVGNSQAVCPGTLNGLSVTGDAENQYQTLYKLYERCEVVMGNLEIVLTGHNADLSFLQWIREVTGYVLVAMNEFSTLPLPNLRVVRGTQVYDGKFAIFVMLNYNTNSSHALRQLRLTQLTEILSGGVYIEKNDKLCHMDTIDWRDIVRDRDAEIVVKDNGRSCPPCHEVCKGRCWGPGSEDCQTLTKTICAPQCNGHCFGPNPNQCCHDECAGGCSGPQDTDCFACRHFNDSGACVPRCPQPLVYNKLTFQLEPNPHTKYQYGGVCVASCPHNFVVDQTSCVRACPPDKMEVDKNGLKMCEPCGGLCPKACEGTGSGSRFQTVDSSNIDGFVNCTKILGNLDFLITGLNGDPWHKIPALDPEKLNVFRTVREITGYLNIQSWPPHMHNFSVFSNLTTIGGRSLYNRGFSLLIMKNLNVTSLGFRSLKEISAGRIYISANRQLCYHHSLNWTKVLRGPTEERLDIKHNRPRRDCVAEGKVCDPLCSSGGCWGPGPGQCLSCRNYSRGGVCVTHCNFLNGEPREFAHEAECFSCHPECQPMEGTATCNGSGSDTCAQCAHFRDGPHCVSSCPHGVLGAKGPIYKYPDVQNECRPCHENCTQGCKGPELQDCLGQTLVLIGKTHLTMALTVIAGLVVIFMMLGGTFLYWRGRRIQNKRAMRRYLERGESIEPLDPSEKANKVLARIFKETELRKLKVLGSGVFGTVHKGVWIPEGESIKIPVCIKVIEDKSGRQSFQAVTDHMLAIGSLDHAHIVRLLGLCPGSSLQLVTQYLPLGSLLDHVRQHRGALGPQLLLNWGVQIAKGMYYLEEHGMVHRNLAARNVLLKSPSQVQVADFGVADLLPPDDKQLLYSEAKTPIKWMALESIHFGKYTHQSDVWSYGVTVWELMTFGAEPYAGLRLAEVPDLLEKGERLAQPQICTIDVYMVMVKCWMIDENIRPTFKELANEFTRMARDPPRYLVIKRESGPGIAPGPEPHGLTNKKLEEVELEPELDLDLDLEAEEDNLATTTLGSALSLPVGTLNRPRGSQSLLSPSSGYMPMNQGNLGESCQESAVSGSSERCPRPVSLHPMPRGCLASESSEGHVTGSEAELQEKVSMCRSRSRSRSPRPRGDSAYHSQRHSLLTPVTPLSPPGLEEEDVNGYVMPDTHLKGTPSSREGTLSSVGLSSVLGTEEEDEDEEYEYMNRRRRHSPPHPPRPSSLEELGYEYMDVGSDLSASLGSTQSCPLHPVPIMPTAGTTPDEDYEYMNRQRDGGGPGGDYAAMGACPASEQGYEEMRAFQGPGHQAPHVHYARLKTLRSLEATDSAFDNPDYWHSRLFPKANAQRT
T22 sequence (Q13163 whole entry): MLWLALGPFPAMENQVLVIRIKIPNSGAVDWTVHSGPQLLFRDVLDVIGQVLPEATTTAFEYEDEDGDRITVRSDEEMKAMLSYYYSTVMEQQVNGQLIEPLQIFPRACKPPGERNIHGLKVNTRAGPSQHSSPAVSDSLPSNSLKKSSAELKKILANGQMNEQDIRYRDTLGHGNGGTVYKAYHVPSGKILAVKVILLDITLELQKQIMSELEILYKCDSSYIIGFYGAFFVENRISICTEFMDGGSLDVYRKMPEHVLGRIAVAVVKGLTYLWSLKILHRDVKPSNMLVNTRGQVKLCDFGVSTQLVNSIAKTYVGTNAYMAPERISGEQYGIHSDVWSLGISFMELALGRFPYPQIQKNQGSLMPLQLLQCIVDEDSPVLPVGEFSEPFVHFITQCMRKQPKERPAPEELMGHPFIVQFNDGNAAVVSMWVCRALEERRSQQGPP
T12 sequence (P20794 whole entry): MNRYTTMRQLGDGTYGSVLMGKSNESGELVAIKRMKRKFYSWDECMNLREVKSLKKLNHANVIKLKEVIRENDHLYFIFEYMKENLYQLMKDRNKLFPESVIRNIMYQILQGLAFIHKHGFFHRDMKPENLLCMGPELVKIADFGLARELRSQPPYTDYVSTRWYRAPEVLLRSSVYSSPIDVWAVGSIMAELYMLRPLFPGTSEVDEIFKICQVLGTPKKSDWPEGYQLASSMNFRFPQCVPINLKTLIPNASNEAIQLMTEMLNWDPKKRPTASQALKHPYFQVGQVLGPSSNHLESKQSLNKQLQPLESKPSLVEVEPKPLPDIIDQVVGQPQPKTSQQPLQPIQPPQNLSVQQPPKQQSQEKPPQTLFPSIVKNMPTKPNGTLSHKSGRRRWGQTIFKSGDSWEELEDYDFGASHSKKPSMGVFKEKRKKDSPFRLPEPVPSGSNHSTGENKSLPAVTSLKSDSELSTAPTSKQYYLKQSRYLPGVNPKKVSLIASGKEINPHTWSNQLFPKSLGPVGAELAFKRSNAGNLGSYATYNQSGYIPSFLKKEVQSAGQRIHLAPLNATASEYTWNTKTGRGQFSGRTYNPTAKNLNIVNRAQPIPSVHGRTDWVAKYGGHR
T19 sequence (P45984 whole entry): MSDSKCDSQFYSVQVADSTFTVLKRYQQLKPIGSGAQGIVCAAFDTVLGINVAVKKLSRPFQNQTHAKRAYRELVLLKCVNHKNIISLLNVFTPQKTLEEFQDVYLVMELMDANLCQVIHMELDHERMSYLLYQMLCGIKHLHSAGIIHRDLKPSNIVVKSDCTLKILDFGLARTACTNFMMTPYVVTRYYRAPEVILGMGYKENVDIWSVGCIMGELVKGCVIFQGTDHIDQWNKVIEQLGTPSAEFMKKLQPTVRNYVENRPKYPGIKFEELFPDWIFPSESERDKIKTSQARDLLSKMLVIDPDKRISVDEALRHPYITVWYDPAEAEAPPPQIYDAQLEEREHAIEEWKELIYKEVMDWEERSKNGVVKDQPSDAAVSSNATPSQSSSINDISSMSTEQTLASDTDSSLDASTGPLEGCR

Compound `CN(C)C(=O)c1cc2cnc(Nc3ccc(-c4csc5c(=O)cc(N6CCOCC6)oc45)cc3)nc2n1C1CCCC1` [SRX3177] has a remaining binding at 1 µM (kinome (kinase panel) [1]) of 0%, a remaining binding at 1 µM (kinome (kinase panel) [2]) of 100% and a remaining binding at 1 µM (kinome (kinase panel) [3]) of 100%. The remaining binding at 1 µM (kinome (kinase panel) [4]) was 94%, the “Percent Control” value (kinome (kinase panel) [5]) was 52 and the remaining binding at 1 µM (kinome (kinase panel) [5]; read-out: Percent Control) was 57%. It also gave a remaining binding at 1 µM (kinome (kinase panel) [6]) of 88%, a remaining binding at 1 µM (kinome (kinase panel) [7]) of 100% and a remaining binding at 1 µM (kinome (kinase panel) [8]) of 28%. The remaining binding at 1 µM (kinome (kinase panel) [9]) was 100%, the remaining binding at 1 µM (kinome (kinase panel) [10]) was 100% and the remaining binding at 1 µM (kinome (kinase panel) [11]) was 5.7%. For the same compound, the remaining binding at 1 µM (kinome (kinase panel) [12]) was 87%, the remaining binding at 1 µM (kinome (kinase panel) [13]) was 59% and the remaining binding at 1 µM (kinome (kinase panel) [14]) was 99%. It also gave a remaining binding at 1 µM (kinome (kinase panel) [15]; TYK2(JH1domain-catalytic)) of 69%, a remaining binding at 1 µM (kinome (kinase panel) [15]; TYK2(JH2domain-pseudokinase)) of 9.7% and a remaining binding at 1 µM (kinome (kinase panel) [16]) of 82%. The remaining binding at 1 µM (kinome (kinase panel) [17]) was 8.9%, the remaining binding at 1 µM (kinome (kinase panel) [18]) was 94% and the remaining binding at 1 µM (kinome (kinase panel) [19]) was 47%. The remaining binding at 1 µM (kinome (kinase panel) [20]) was 60%, the remaining binding at 1 µM (kinome (kinase panel) [21]) was 90% and the remaining binding at 1 µM (kinome (kinase panel) [22]) was 12%. For the same compound, the remaining binding at 1 µM (kinome (kinase panel) [23]) was 70%, the remaining binding at 1 µM (kinome (kinase panel) [24]) was 93% and the remaining binding at 1 µM (kinome (kinase panel) [25]) was 100%. For the same compound, the remaining binding at 1 µM (kinome (kinase panel) [26]) was 72%, the remaining binding at 1 µM (kinome (kinase panel) [27]) was 90% and the remaining binding at 1 µM (kinome (kinase panel) [28]) was 100%. The remaining binding at 1 µM (kinome (kinase panel) [29]) was 100%, the remaining binding at 1 µM (kinome (kinase panel) [30]) was 100% and the remaining binding at 1 µM (kinome (kinase panel) [31]) was 2.5%. For the same compound, the remaining binding at 1 µM (kinome (kinase panel) [32]) was 100% and the remaining binding at 1 µM (kinome (kinase panel) [33]) was 20%.

Source: PMC7385619, “A triple action CDK4/6-PI3K-BET inhibitor with augmented cancer cell cytotoxicity” (Cell Discovery, 2020)
